The target of this test is GST-Xa-hAAK1 (Homo sapiens (Human), UniProt Q2M2I8). Description: AAK1 Kinase Assay. In kind it is biochemical. Particulars: bacterially expressed GST-Xa-hAAK1 3.5 nM; ATP 22 μM; fluoresceinated peptide 1.5 μM; 3 hours at room temperature; Caliper LabChip 3000. On the procedure:
The assays were performed in U-bottom 384-well plates. […] The reactions were initiated by the combination of bacterially expressed, GST-Xa-hAAK1 with substrates and test compounds. The reactions were incubated at room temperature for 3 hours and terminated by adding 60 μl of 35 mM EDTA buffer to each sample. The reactions were analyzed on the Caliper LabChip 3000 (Caliper, Hopkinton, Mass.) by electrophoretic separation of the fluorescent substrate and phosphorylated product. […] Compounds were dissolved at 10 mM in dimethylsulfoxide (DMSO) and evaluated at eleven concentrations. IC50 values were derived by non-linear regression analysis.

Molecules are shown by their SMILES.

In US10544120B2, “Biaryl kinase inhibitors” (BRISTOL-MYERS SQUIBB COMPANY, priority 2015, dated 2020) one finds IC50 data, which are given here for 35 compounds.

GST-Xa-hAAK1, sequence (Q2M2I8 whole entry): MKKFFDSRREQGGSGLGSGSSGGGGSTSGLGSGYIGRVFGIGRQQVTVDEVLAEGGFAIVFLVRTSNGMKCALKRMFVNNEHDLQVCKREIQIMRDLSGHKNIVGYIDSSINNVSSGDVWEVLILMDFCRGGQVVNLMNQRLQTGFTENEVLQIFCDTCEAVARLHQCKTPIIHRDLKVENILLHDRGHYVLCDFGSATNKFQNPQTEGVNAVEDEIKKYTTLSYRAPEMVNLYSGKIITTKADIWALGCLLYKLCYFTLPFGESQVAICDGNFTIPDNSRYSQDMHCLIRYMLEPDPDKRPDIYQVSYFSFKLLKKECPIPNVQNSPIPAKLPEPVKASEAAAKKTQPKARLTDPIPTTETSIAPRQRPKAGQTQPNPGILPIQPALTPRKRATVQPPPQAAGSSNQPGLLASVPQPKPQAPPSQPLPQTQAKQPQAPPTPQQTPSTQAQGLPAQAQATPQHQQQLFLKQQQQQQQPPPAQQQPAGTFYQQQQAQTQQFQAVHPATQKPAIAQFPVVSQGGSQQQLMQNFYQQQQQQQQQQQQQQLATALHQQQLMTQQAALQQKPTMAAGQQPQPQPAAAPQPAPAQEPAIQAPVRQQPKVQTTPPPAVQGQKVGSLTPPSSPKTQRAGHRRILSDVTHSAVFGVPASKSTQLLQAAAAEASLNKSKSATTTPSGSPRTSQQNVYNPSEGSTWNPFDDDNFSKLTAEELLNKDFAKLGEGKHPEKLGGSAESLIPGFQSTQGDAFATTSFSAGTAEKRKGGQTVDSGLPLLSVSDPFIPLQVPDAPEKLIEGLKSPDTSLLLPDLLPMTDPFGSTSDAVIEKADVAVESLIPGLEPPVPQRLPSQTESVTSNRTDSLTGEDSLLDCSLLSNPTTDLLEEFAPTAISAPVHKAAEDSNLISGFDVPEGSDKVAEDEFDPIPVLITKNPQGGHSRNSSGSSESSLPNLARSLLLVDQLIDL

Usually IC50 stands for the concentration that inhibits the measured activity by half. Consider `Cc1nccc(-c2ccc(OCC(N)(CC(C)C)C(F)(F)F)c(C)n2)n1` (single isomer, unassigned) [Example 359, 1,1,1-trifluoro-4-methyl-2-(((2-methyl-6-(2-methylpyrimidin-4-yl)pyridin-3-yl)oxy)methyl)pentan-2-amine], for which the IC50 amounted to 865 nM.

On to `Cc1nccc(-c2ccc(OCC(N)(CC(C)C)C(F)(F)F)c(C)n2)n1` (single isomer, unassigned) [Example 360, 1,1,1-trifluoro-4-methyl-2-(((2-methyl-6-(2-methylpyrimidin-4-yl)pyridin-3-yl)oxy)methyl)pentan-2-amine], for which the IC50 was determined as 1250 nM.

`Cc1cc(-c2cc(C(F)(F)F)c(OCC(C)(N)CC(C)C)cn2)ccn1` (stereo in doubt) [Example 164, (R)-2,4-dimethyl-1-((2′-methyl-4-(trifluoromethyl)-[2,4′-bipyridin]-5-yl)oxy)pentan-2-amine]: the IC50 turned out to be 254 nM.

`Cc1nccc(-c2cnc(OC[C@](C)(N)CC(C)C)c(C)c2)n1` [Example 263, (R)-2,4-dimethyl-1-((3-methyl-5-(2-methylpyrimidin-4-yl)pyridin-2-yl)oxy)pentan-2-amine]: the IC50 amounted to 950 nM.

Turning to `Cc1nccc(-c2cnc(OC[C@@](C)(N)CC(C)C)c(C)c2)n1` [Example 268, (S)-2,4-dimethyl-1-((3-methyl-5-(2-methylpyrimidin-4-yl)pyridin-2-yl)oxy)pentan-2-amine], the IC50 amounted to 11 nM.

For `COC(=O)Nc1cc(-c2ccc(OCC(N)(CC(C)C)C(F)(F)F)c(C)n2)ccn1` (centres unmarked) [Example 273, methyl 5-(2-amino-4-methyl-2-(trifluoromethyl)pentyloxy)-6-methyl-2,4′-bipyridin-2′-ylcarbamate], the IC50 came out at 226 nM.

For the compound `Cc1nccc(-c2cnc(OCC(N)(CC(C)C)C(F)(F)F)c(C)c2)n1` (centres unmarked) [Example 274, 1,1,1-trifluoro-4-methyl-2-(((3-methyl-5-(2-methylpyrimidin-4-yl)pyridin-2-yl)oxy)methyl)pentan-2-amine], the IC50 came to 986 nM.

As for `CC(C)C[C@](C)(N)COc1ccc(-c2cc(N)ncn2)cc1C(F)(F)F` [Example 278, (S)-6-(4-((2-amino-2,4-dimethylpentyl)oxy)-3-(trifluoromethyl)phenyl) pyrimidin-4-amine], the IC50 turned out to be 1.9 nM.

Turning to `Cc1nccc(-c2ccc(OC[C@@](C)(N)CC(C)C)c(CF)n2)n1` [Example 279], the IC50 was found to be 23 nM.

On to `COC(=O)Nc1cc(-c2ccc(OC[C@@](C)(N)CC(C)C)c(CF)n2)ccn1` [Example 280, (S)-methyl (5-((2-amino-2,4-dimethylpentyl)oxy)-6-(fluoromethyl)-[2,4′-bipyridin]-2′-yl)carbamate], for which the IC50 was found to be 1.1 nM.

In the case of `CC(C)C[C@](C)(N)COc1ccc(-c2cc(N)ncn2)cc1Cl` [Example 285, (S)-6-(4-((2-amino-2,4-dimethylpentyl)oxy)-3-chlorophenyl)pyrimidin-4-amine], the IC50 amounted to 1.1 nM.

On to `Cc1nccc(-c2ccc(OC[C@@](C)(N)CC(C)C)c(C(F)(F)F)c2)n1` [Example 290, (S)-2,4-dimethyl-1-(4-(2-methylpyrimidin-4-yl)-2-(trifluoromethyl)phenoxy)pentan-2-amine], for which the IC50 came out at 0.6 nM.

As to `CC(C)C[C@](C)(N)COc1ccc(-c2ccnc(N)c2)cc1C(F)(F)F` [Example 297, (S)-4-(4-((2-amino-2,4-dimethylpentyl)oxy)-3-(trifluoromethyl)phenyl)pyridin-2-amine], the IC50 is 0.3 nM.

Take `Cc1nccc(-c2cnc(OC[C@@](C)(N)CC(C)C)c(-c3cnco3)c2)n1` [Example 298, (S)-2,4-dimethyl-1-((5-(2-methylpyrimidin-4-yl)-3-(oxazol-5-yl)pyridin-2-yl)oxy)pentan-2-amine]: the IC50 turned out to be 45 nM.

For the compound `COC(=O)Nc1cc(-c2ccc(OC[C@@](C)(N)CC(C)C)c(C#N)c2)cnn1` [Example 300, (S)-methyl (5-(4-((2-amino-2,4-dimethylpentyl)oxy)-3-cyanophenyl)pyridazin-3-yl)carbamate], the IC50 was determined as 246 nM.

For the compound `COC(=O)Nc1cc(-c2ccc(OC[C@@](C)(N)CC(C)C)c(Cl)c2)cnn1` [Example 301, (S)-methyl (5-(4-((2-amino-2,4-dimethylpentyl)oxy)-3-chlorophenyl)pyridazin-3-yl)carbamate], the IC50 came out at 58 nM.

For the compound `COC(=O)Nc1nccc(-c2cnc(OC[C@](C)(N)CC(C)C)c(Cl)c2)n1` [Example 304, (R)-methyl(4-(6-((2-amino-2,4-dimethylpentyl)oxy)-5-chloropyridin-3-yl)pyrimidin-2-yl)carbamate], the IC50 came to 298 nM.

Regarding `COC(=O)Nc1nccc(-c2ccc(OC[C@@](C)(N)CC(C)C)c(C#N)c2)n1` [Example 305, (S)-methyl (4-(4-((2-amino-2,4-dimethylpentyl)oxy)-3-cyanophenyl)pyrimidin-2-yl)carbamate], the IC50 worked out at 1 nM.

Turning to `COC(=O)Nc1nccc(-c2ccc(OC[C@@](C)(N)CC(C)C)c(C(F)(F)F)c2)n1` [Example 306, (S)-methyl(4-(4-((2-amino-2,4-dimethylpentyl)oxy)-3-(trifluoromethyl)phenyl)pyrimidin-2-yl)carbamate], the IC50 turned out to be 0.6 nM.

Regarding `COC(=O)Nc1nccc(-c2ccc(OC[C@@](C)(N)CC(C)C)c(Cl)c2)n1` [Example 307, (S)-methyl (4-(4-((2-amino-2,4-dimethylpentyl)oxy)-3-chlorophenyl)pyrimidin-2-yl)carbamate], the IC50 came to 0.9 nM.

Regarding `Cc1cc(-c2ccc(OC[C@@](C)(N)CC(C)C)c(Cl)c2)ncn1` [Example 308, (S)-1-(2-chloro-4-(6-methylpyrimidin-4-yl)phenoxy)-2,4-dimethylpentan-2-amine], the IC50 came to 12 nM.

In the case of `Cc1cc(-c2ccc(OC[C@@](C)(N)CC(C)C)c(C(F)(F)F)c2)ncn1` [Example 309, (S)-2,4-dimethyl-1-(4-(6-methylpyrimidin-4-yl)-2-(trifluoromethyl)phenoxy)pentan-2-amine], the IC50 was found to be 8.5 nM.

Take `COC(=O)Nc1nccc(-c2ccc(OC[C@@](C)(N)CC(C)C)c(F)c2)n1` [Example 310, (S)-methyl (4-(4-((2-amino-2,4-dimethylpentyl)oxy)-3-fluorophenyl)pyrimidin-2-yl)carbamate]: the IC50 was 9.1 nM.

Turning to `CC(C)C[C@](C)(N)COc1ccc(-c2ccnc(NC(=O)OC(C)C)n2)cc1C(F)(F)F` [Example 311, (S)-isopropyl (4-(4-((2-amino-2,4-dimethylpentyl)oxy)-3-(trifluoromethyl)phenyl)pyrimidin-2-yl)carbamate], the IC50 came out at 3.9 nM.

For `COC(=O)Nc1nccc(-c2ccc(OC[C@@](C)(N)CC(C)C)c(C)n2)n1` [Example 312, (S)-methyl (4-(5-((2-amino-2,4 dimethylpentyl)oxy)-6-methylpyridin-2-yl)pyrimidin-2-yl)carbamate], the IC50 worked out at 4.9 nM.

As for `Cc1nc(-c2ccnc(N)n2)ccc1OC[C@@](C)(N)CC(C)C` [Example 313, (S)-4-(5-((2-amino-2,4-dimethylpentyl)oxy)-6-methylpyridin-2-yl)pyrimidin-2-amine], the IC50 turned out to be 2.4 nM.

As for `CCOC(=O)Nc1nccc(-c2ccc(OC[C@@](C)(N)CC(C)C)c(C(F)(F)F)c2)n1` [Example 314, (S)-ethyl (4-(4-((2-amino-2,4-dimethylpentyl)oxy)-3-(trifluoromethyl)phenyl)pyrimidin-2-yl)carbamate], the IC50 was found to be 1.2 nM.

`CC(C)C[C@](C)(N)COc1ccc(-c2ccnc(C(F)F)n2)cc1C#N` [Example 315, (S)-2-((2-amino-2,4-dimethylpentyl)oxy)-5-(2-(difluoromethyl)pyrimidin-4-yl)benzonitrile]: the IC50 is 1.5 nM.

Turning to `COc1nccc(-c2ccc(OC[C@@](C)(N)CC(C)C)c(C(F)(F)F)c2)n1` [Example 316, (S)-1-(4-(2-methoxypyrimidin-4-yl)-2-(trifluoromethyl)phenoxy)-2,4-dimethylpentan-2-amine], the IC50 was 8.2 nM.

In the case of `CC(C)C[C@](C)(N)COc1ccc(-c2ccnc(O)n2)cc1C(F)(F)F` [Example 317, (S)-4-(4-((2-amino-2,4-dimethylpentyl)oxy)-3 (trifluoromethyl)phenyl)pyrimidin-2-ol], the IC50 came out at 103 nM.

In the case of `Cc1cc(-c2cc(C(F)F)c(OC[C@@](C)(N)CC(C)C)cn2)ncn1` [Example 318, (S)-1-((4-(difluoromethyl)-6-(6-methylpyrimidin-4-yl)pyridin-3-yl)oxy)-2,4-dimethylpentan-2-amine], the IC50 was determined as 9.7 nM.

On to `CC(C)C[C@](C)(N)COc1ccc(-c2ccnc(C(F)F)n2)nc1C(F)F` [Example 319, (S)-1-((2-(difluoromethyl)-6-(2-(difluoromethyl)pyrimidin-4-yl)pyridin-3-yl)oxy)-2,4-dimethylpentan-2-amine], for which the IC50 worked out at 0.5 nM.

Regarding `Cc1cc(-c2ccc(OC[C@@](C)(N)CC(C)C)c(CF)n2)ccn1` [Example 320, (S)-1-((6-(fluoromethyl)-2′-methyl-[2,4′-bipyridin]-5-yl)oxy)-2,4-dimethylpentan-2-amine], the IC50 came to 21 nM.

As for `COC(=O)Nc1nccc(-c2ccc(OC[C@@](C)(N)CC(C)C)c(C(F)F)n2)n1` [Example 323, (S)-methyl (4-(5-((2-amino-2,4-dimethylpentyl)oxy)-6-(difluoromethyl)pyridin-2-yl)pyrimidin-2-yl)carbamate], the IC50 was determined as 0.8 nM.

For `CC(C)C[C@](C)(N)COc1ccc(-c2ccnc(CF)c2)nc1CF` [Example 324, (S)-1-((2′,6-bis(fluoromethyl)-[2,4′-bipyridin]-5-yl)oxy)-2,4-dimethylpentan-2-amine], the IC50 worked out at 4.8 nM.
